Tests used:
[1] = biological target: T1, HCV polymerase (NS5B) type 1b (Hepatitis C virus genotype 1b, UniProt P26663); experiment: Assay of enzyme (HCV polymerase) inhibitory activity, type 1b enzyme; format: biochemical, HCV BK strain (type 1b); conditions: HCV polymerase inhibitory activity (IC50), 1b, type 1b enzyme 0.5 μg/ml, 25° C., 60 min
T1 construct: a region encoding NS5B (J Virol 1991 March, 65(3), 1105-13, 544 amino acids after deletion of 47 amino acids on the C-terminal); 6xHis (C); made in house; host or cells: Escherichia coli
Method in brief: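 Rxn: NS5B 1b (BK, ΔC47, His6) 0.5 μg/ml; substrate RNA 5 μg/ml; ATP/GTP/CTP 50 μM, UTP 2 μM + [5,6-3H]UTP; 20 mM Tris pH 7.5, 5 mM MgCl2, 50 mM NaCl, 1 mM EDTA/DTT. 25 °C, 60 min. Stop with TCA/pyrophosphate, filter, scintillation count; IC50 vs. untreated.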

[2] = biological target: T2, HCV polymerase (NS5B) type 1a (Hepatitis C virus genotype 1a, UniProt P26664); experiment: Assay of enzyme (HCV polymerase) inhibitory activity, type 1a enzyme; format: biochemical, HCV type 1a (cloned from the blood of patients); conditions: HCV polymerase inhibitory activity (IC50), 1a, type 1a enzyme 1.5 μg/ml, 25° C., 60 min
T2 construct: made in house; host or cells: Escherichia coli (by the 'similar method' of the 1b enzyme)
Method in brief: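 NS5B Δ47 C-term His6 (type 1a, 1.5 μg/ml); substrate RNA 5 μg/ml; ATP/GTP/CTP 50 μM, UTP 2 μM + [5,6-3H]UTP; Tris pH 7.5, MgCl2 5 mM; 25° C, 60 min. TCA/pyrophosphate stop, GF/B filter, scintillation. IC50 vs no-compound control.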

Structure (SMILES)	IC50 [1] [µM]	IC50 [2] [µM]
CCCc1ccc(CNC(=O)[C@H]2CN(c3nc(C)c(CN4CCCC4)s3)CCN2S(=O)(=O)c2ccc(OC(F)(F)F)cc2)cc1 [Example 531, (R)-4-(4-methyl-5-pyrrolidin-1-ylmethyl-thiazol-2-yl)-1-(4-trifluoromethoxy-benzenesulfonyl)-piperazine-2-carboxylic acid 4-propyl-benzylamide]	< 0.1	< 0.1
CCOC(=O)Cn1nnc(CC(=O)N2CCN(S(=O)(=O)c3ccc(OC(F)(F)F)cc3)[C@@H](C(=O)NCc3ccc(C(F)(F)CC)cc3)C2)n1 [Example 532, (5-{2-[(R)-3-[4-(1,1-difluoro-propyl)-benzylcarbamoyl]-4-(4-trifluoromethoxy-benzenesulfonyl)-piperazin-1-yl]-2-oxo-ethyl}-tetrazol-2-yl)-acetic acid ethyl ester]	< 0.1	< 0.1
CCOC(=O)Cn1nnnc1CC(=O)N1CCN(S(=O)(=O)c2ccc(OC(F)(F)F)cc2)[C@@H](C(=O)NCc2ccc(C(F)(F)CC)cc2)C1 [Example 533, (5-{2-[(R)-3-[4-(1,1-difluoro-propyl)-benzylcarbamoyl]-4-(4-trifluoromethoxy-benzenesulfonyl)-piperazin-1-yl]-2-oxo-ethyl}-tetrazol-1-yl)-acetic acid ethyl ester]	> 1	> 1
CCCc1ccc(CNC(=O)[C@H]2CN(c3nc4c(s3)CN(C(=O)OCc3ccccc3)CC4)CCN2S(=O)(=O)c2ccc(OC(F)(F)F)cc2)cc1 [Example 534, 2-[(R)-3-(4-propyl-benzylcarbamoyl)-4-(4-trifluoromethoxy-benzenesulfonyl)-piperazin-1-yl]-6,7-dihydro-4H-thiazolo[5,4-c]pyridine-5-carboxylic acid benzyl ester]	< 0.1	< 0.1
CCCc1ccc(S(=O)(=O)N2CCN(c3nc(C(=O)O)c(CO)s3)C[C@@H]2C(=O)NCc2ccc(C(C)C)cc2)cc1 [Example 535, 5-hydroxymethyl-2-[(R)-3-(4-isopropyl-benzylcarbamoyl)-4-(4-propyl-benzenesulfonyl)-piperazin-1-yl]-thiazole-4-carboxylic acid]	< 0.1	< 0.1
CCCc1ccc(CNC(=O)[C@H]2CN(c3nc(C(=O)O)c(COC)s3)CCN2S(=O)(=O)c2ccc(OC(F)(F)F)cc2)cc1 [Example 536, 5-methoxymethyl-2-[(R)-3-(4-propyl-benzylcarbamoyl)-4-(4-trifluoromethoxy-benzenesulfonyl)-piperazin-1-yl]-thiazole-4-carboxylic acid]	< 0.1	0.1 to 1
CCCc1ccc(CNC(=O)[C@H]2CN(c3nc(C(=O)O)c(CO)s3)CCN2S(=O)(=O)c2ccc(OC(F)(F)F)cc2)cc1 [Example 537, 5-hydroxymethyl-2-[(R)-3-(4-propyl-benzylcarbamoyl)-4-(4-trifluoromethoxy-benzenesulfonyl)-piperazin-1-yl]-thiazole-4-carboxylic acid]	< 0.1	< 0.1
CCCc1ccc(CNC(=O)[C@H]2CN(c3cnc(CN(C)C)cn3)CCN2S(=O)(=O)c2ccc(CC)cc2)cc1 [Example 538, (R)-5′-dimethylaminomethyl-4-(4-ethyl-benzenesulfonyl)-3,4,5,6-tetrahydro-2H-[1,2′]bipyrazinyl-3-carboxylic acid 4-propyl-benzylamide]	< 0.1	< 0.1
CCC(F)(F)c1ccc(CNC(=O)[C@H]2CN(C(=O)Nn3cnnc3)CCN2S(=O)(=O)c2ccc(OC(F)(F)F)cc2)cc1 [Example 539, (R)-4-(4-trifluoromethoxy-benzenesulfonyl)-piperazine-1,3-dicarboxylic acid 3-[4-(1,1-difluoro-propyl)-benzylamide] 1-[1,2,4]triazol-4-ylamide]	0.1 to 1	0.1 to 1
CCC(F)(F)c1ccc(CNC(=O)[C@H]2CN(C(=O)n3cnc(N)n3)CCN2S(=O)(=O)c2ccc(OC(F)(F)F)cc2)cc1 [Example 540, (R)-4-(3-amino-[1,2,4]triazole-1-carbonyl)-1-(4-trifluoromethoxy-benzenesulfonyl)-piperazine-2-carboxylic acid 4-(1,1-difluoro-propyl)-benzylamide]	> 1	> 1
CCC(F)(F)c1ccc(CNC(=O)[C@H]2CN(C(=O)Cn3nnnc3C(C)C)CCN2S(=O)(=O)c2ccc(OC(F)(F)F)cc2)cc1 [Example 541, (R)-4-[2-(5-isopropyl-tetrazol-1-yl)-acetyl]-1-(4-trifluoromethoxy-benzenesulfonyl)-piperazine-2-carboxylic acid 4-(1,1-difluoro-propyl)-benzylamide]	0.1 to 1	0.1 to 1
CCC(F)(F)c1ccc(CNC(=O)[C@H]2CN(C(=O)Cn3nnc(C(C)C)n3)CCN2S(=O)(=O)c2ccc(OC(F)(F)F)cc2)cc1 [Example 542, (R)-4-[2-(5-isopropyl-tetrazol-2-yl)-acetyl]-1-(4-trifluoromethoxy-benzenesulfonyl)-piperazine-2-carboxylic acid 4-(1,1-difluoro-propyl)-benzylamide]	< 0.1	< 0.1
CCC(F)(F)c1ccc(CNC(=O)[C@H]2CN(C(=O)Cn3nnc(CC(=O)N4CCOCC4)n3)CCN2S(=O)(=O)c2ccc(OC(F)(F)F)cc2)cc1 [Example 543, (R)-4-{2-[5-(2-morpholin-4-yl-2-oxo-ethyl)-tetrazol-2-yl]-acetyl}-1-(4-trifluoromethoxy-benzenesulfonyl)-piperazine-2-carboxylic acid 4-(1,1-difluoro-propyl)-benzylamide]	< 0.1	< 0.1
CCCc1ccc(CNC(=O)[C@H]2CN(c3cnc(NS(C)(=O)=O)cn3)CCN2S(=O)(=O)c2ccc(OC(F)(F)F)cc2)cc1 [Example 544, (R)-5′-methanesulfonylamino-4-(4-trifluoromethoxy-benzenesulfonyl)-3,4,5,6-tetrahydro-2H-[1,2′]bipyrazinyl-3-carboxylic acid 4-propyl-benzylamide]	< 0.1	< 0.1
CC(C)(C)c1ccc(CNC(=O)[C@H]2CN(c3cnc(CO)cn3)CCN2S(=O)(=O)c2ccc(OC(F)(F)F)cc2)cc1 [Example 545, (R)-5′-hydroxymethyl-4-(4-trifluoromethoxy-benzenesulfonyl)-3,4,5,6-tetrahydro-2H-[1,2′]bipyrazinyl-3-carboxylic acid 4-tert-butyl-benzylamide]	< 0.1	< 0.1
CCCc1ccc(CNC(=O)[C@H]2CN(c3ccc(O)nn3)CCN2S(=O)(=O)c2ccc(OC(F)(F)F)cc2)cc1 [Example 546, (R)-4-(6-hydroxy-pyridazin-3-yl)-1-(4-trifluoromethoxy-benzenesulfonyl)-piperazine-2-carboxylic acid 4-propyl-benzylamide]	< 0.1	< 0.1
CCCc1ccc(CNC(=O)[C@H]2CN(c3ccc(C(N)=O)nn3)CCN2S(=O)(=O)c2ccc(OC(F)(F)F)cc2)cc1 [Example 547, 6-[(R)-3-(4-propyl-benzylcarbamoyl)-4-(4-trifluoromethoxy-benzenesulfonyl)-piperazin-1-yl]-pyridazine-3-carboxylic acid amide]	< 0.1	< 0.1
CCCc1ccc(CNC(=O)[C@H]2CN(c3nc4c(s3)CN(C)CC4)CCN2S(=O)(=O)c2ccc(OC(F)(F)F)cc2)cc1 [Example 548, (R)-4-(5-methyl-4,5,6,7-tetrahydro-thiazolo[5,4-c]pyridin-2-yl)-1-(4-trifluoromethoxy-benzenesulfonyl)-piperazine-2-carboxylic acid 4-propyl-benzylamide]	< 0.1	< 0.1
CCCc1ccc(CNC(=O)[C@H]2CN(c3cnc(CO)c(N)n3)CCN2S(=O)(=O)c2ccc(OC(F)(F)F)cc2)cc1 [Example 549, (R)-6′-amino-5′-hydroxymethyl-4-(4-trifluoromethoxy-benzenesulfonyl)-3,4,5,6-tetrahydro-2H-[1,2′]bipyrazinyl-3-carboxylic acid 4-propyl-benzylamide]	< 0.1	< 0.1
CC(=O)N1CCN(S(=O)(=O)c2ccc(OC(F)(F)F)cc2)[C@@H](C(=O)NCc2ccc(C(F)(F)C(F)(F)F)cc2)C1 [Example 550, (R)-4-acetyl-1-(4-trifluoromethoxy-benzenesulfonyl)-piperazine-2-carboxylic acid 4-pentafluoroethyl-benzylamide]	0.1 to 1	0.1 to 1
Cc1nnn(CC(=O)N2CCN(S(=O)(=O)c3ccc(OC(F)(F)F)cc3)[C@@H](C(=O)NCc3ccc(C(F)(F)C(F)(F)F)cc3)C2)n1 [Example 551, (R)-4-[2-(5-methyl-tetrazol-2-yl)-acetyl]-1-(4-trifluoromethoxy-benzenesulfonyl)-piperazine-2-carboxylic acid 4-pentafluoroethyl-benzylamide]	0.1 to 1	0.1 to 1
Cc1nnc(NC(=O)N2CCN(S(=O)(=O)c3ccc(OC(F)(F)F)cc3)[C@@H](C(=O)NCc3ccc(C(F)(F)C(F)(F)F)cc3)C2)s1 [Example 552, (R)-4-(4-trifluoromethoxy-benzenesulfonyl)-piperazine-1,3-dicarboxylic acid 1-[(5-methyl-[1,3,4]thiadiazol-2-yl)-amide] 3-(4-pentafluoroethyl-benzylamide)]	0.1 to 1	> 1

— patent US8017612B2, “Piperazine compound and use thereof as a HCV polymerase inhibitor” (priority 2006, dated 2011)
